Results from ChEMBL document CHEMBL1201862, “PubChem BioAssay data set” (2004).
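Dose response: 5 concentrations. Exposure: 48 h. Format: 96-well plates. Endpoint: linear interpolation; highest concentration if not reached. Abbreviation: GI50, concentration required for 50% inhibition of growth.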 Calls of active or inactive are those of the source. Cut-off read from the data, not from the text of the source: active = GI50 up to about 1.1 µM and inactive = higher.

Experiments:
Assay in all cases: inhibition of tumour cell growth, NCI panel, 48 h
CAKI-1 = system: CAKI-1
RXF 393 = system: RXF 393
Hs-578T = system: Hs-578T
U-251 = system: U-251
K562 = system: K562
SW-620 = system: SW-620
SNB-19 = system: SNB-19
HL-60 = system: HL-60
CCRF-CEM = system: CCRF-CEM
M14 = system: M14
OVCAR-8 = system: OVCAR-8
HT-29 = system: HT-29
TK-10 = system: TK-10
UO-31 = system: UO-31
MOLT-4 = system: MOLT-4
SN12C = system: SN12C
SR = system: SR
OVCAR-5 = system: OVCAR-5
Malme-3M = system: Malme-3M
UACC-62 = system: UACC-62

SMILES	GI50 (CAKI-1)	GI50 (RXF 393)	GI50 (Hs-578T)	GI50 (U-251)	GI50 (K562)	GI50 (SW-620)	GI50 (SNB-19)	GI50 (HL-60)	GI50 (CCRF-CEM)	GI50 (M14)	GI50 (OVCAR-8)	GI50 (HT-29)	GI50 (TK-10)	GI50 (UO-31)	GI50 (MOLT-4)	GI50 (SN12C)	GI50 (SR)	GI50 (OVCAR-5)	GI50 (Malme-3M)	GI50 (UACC-62)
CN1CCC/C1=C1\C(=O)c2cccn2C1=O	> 100 µM (inactive)	> 100 µM (inactive)	> 100 µM (inactive)	> 100 µM (inactive)	> 100 µM (inactive)	> 100 µM (inactive)	> 100 µM (inactive)	> 100 µM (inactive)	> 100 µM (inactive)	> 100 µM (inactive)	> 100 µM (inactive)	> 100 µM (inactive)	> 100 µM (inactive)	> 100 µM (inactive)	> 100 µM (inactive)	> 100 µM (inactive)	> 100 µM (inactive)	> 100 µM (inactive)	> 100 µM (inactive)	> 100 µM (inactive)
O=C(O)C1(CC(CCCN2CCCCC2)c2ccccc2)CCCC1 (stereo not given)	> 100 µM (inactive)	> 100 µM (inactive)	> 100 µM (inactive)	> 100 µM (inactive)	> 100 µM (inactive)	> 100 µM (inactive)	> 100 µM (inactive)	> 100 µM (inactive)	> 100 µM (inactive)	> 100 µM (inactive)	> 100 µM (inactive)	> 100 µM (inactive)	> 100 µM (inactive)	> 100 µM (inactive)	> 100 µM (inactive)	> 100 µM (inactive)	> 100 µM (inactive)	> 100 µM (inactive)	> 100 µM (inactive)	> 100 µM (inactive)
Cc1ccc(C(C)C)c(OCC(=O)N/N=C/c2c[nH]c3ccc(Br)cc23)c1	2.55 µM (inactive)	1.37 µM (inactive)	4.82 µM (inactive)	3.11 µM (inactive)	2.38 µM (inactive)	3.61 µM (inactive)	2.87 µM (inactive)	2.37 µM (inactive)	2.11 µM (inactive)	1.98 µM (inactive)	3.95 µM (inactive)	2.11 µM (inactive)	2.4 µM (inactive)	3.49 µM (inactive)	3.3 µM (inactive)	3.27 µM (inactive)	0.698 µM (active)	5.11 µM (inactive)	6.3 µM (inactive)	2.29 µM (inactive)
O=[N+]([O-])c1cc(C2(N3CCCCC3)CCCCC2)sc1Br	6 µM (inactive)	3.66 µM (inactive)	7.05 µM (inactive)	6.01 µM (inactive)	2.92 µM (inactive)	4.09 µM (inactive)	14.1 µM (inactive)	2.34 µM (inactive)	2.08 µM (inactive)	7.69 µM (inactive)	6.31 µM (inactive)	3.87 µM (inactive)	2.39 µM (inactive)	12.1 µM (inactive)	1.8 µM (inactive)	5.15 µM (inactive)	2.99 µM (inactive)	19.5 µM (inactive)	3.44 µM (inactive)	11.3 µM (inactive)
CC1CCCc2c(-c3ccc(Cl)cc3)nc(N)c(C#N)c21 (stereo not given)	58.2 µM (inactive)	27.2 µM (inactive)	28.3 µM (inactive)	39.9 µM (inactive)	24 µM (inactive)	61.9 µM (inactive)	64.7 µM (inactive)	22.7 µM (inactive)	21.1 µM (inactive)	30 µM (inactive)	24.6 µM (inactive)	30.6 µM (inactive)	43.7 µM (inactive)	21.6 µM (inactive)	20 µM (inactive)	41.4 µM (inactive)	9.84 µM (inactive)	43 µM (inactive)	24.4 µM (inactive)	18.9 µM (inactive)
Cc1nc2ccc(Cl)cc2c(Cl)c1CCCl	54 µM (inactive)	> 100 µM (inactive)	38.1 µM (inactive)	45.9 µM (inactive)	9.86 µM (inactive)	40.2 µM (inactive)	45.4 µM (inactive)	46.6 µM (inactive)	15.1 µM (inactive)	31 µM (inactive)	62.4 µM (inactive)	27.2 µM (inactive)	> 100 µM (inactive)	42.2 µM (inactive)	15.6 µM (inactive)	39.5 µM (inactive)	34.4 µM (inactive)	38.5 µM (inactive)	> 100 µM (inactive)	28.1 µM (inactive)
COCCOC1=C(Cl)C(=O)c2c(O)ccc(O)c2C1=O	0.438 µM (active)	0.798 µM (active)	3.24 µM (inactive)	4.75 µM (inactive)	0.635 µM (active)	0.444 µM (active)	14.6 µM (inactive)	0.111 µM (active)	0.111 µM (active)	1.71 µM (inactive)	1.63 µM (inactive)	2.37 µM (inactive)	1.47 µM (inactive)	1.71 µM (inactive)	0.105 µM (active)	1.92 µM (inactive)	0.78 µM (active)	6.93 µM (inactive)	0.955 µM (active)	4.81 µM (inactive)
CN(C)CCNC(=O)c1c(O)ccc2c1c1c(n2CCc2ccccc2)C(=O)c2ccccc2C1=O	7.08 µM (inactive)	0.302 µM (active)	9.73 µM (inactive)	4.4 µM (inactive)	2.39 µM (inactive)	6.93 µM (inactive)	9.68 µM (inactive)	9.18 µM (inactive)	0.826 µM (active)	1.93 µM (inactive)	8.36 µM (inactive)	6.82 µM (inactive)	7.93 µM (inactive)	5.26 µM (inactive)	4.42 µM (inactive)	6.56 µM (inactive)	2.58 µM (inactive)	15.5 µM (inactive)	3.63 µM (inactive)	2.76 µM (inactive)
O=C1c2ccccc2C(=O)c2sc(Nc3cc(Cl)ccc3Cl)nc21	5.02 µM (inactive)	14.3 µM (inactive)	9.25 µM (inactive)	6.56 µM (inactive)	2.99 µM (inactive)	2.94 µM (inactive)	14.3 µM (inactive)	0.736 µM (active)	4.29 µM (inactive)	4.69 µM (inactive)	3.77 µM (inactive)	14.1 µM (inactive)	15 µM (inactive)	6.03 µM (inactive)	2.52 µM (inactive)	2.08 µM (inactive)	2.52 µM (inactive)	20.9 µM (inactive)	1.44 µM (inactive)	2.49 µM (inactive)
OC1(c2ccc(Cl)cc2)C(N2CCCC2)c2ccccc2C2=NCCN21 (stereo not given)	26.5 µM (inactive)	29.1 µM (inactive)	29.9 µM (inactive)	37.4 µM (inactive)	13.6 µM (inactive)	20.3 µM (inactive)	54.3 µM (inactive)	20.7 µM (inactive)	17.6 µM (inactive)	15.8 µM (inactive)	23.9 µM (inactive)	7.13 µM (inactive)	14.6 µM (inactive)	33 µM (inactive)	16 µM (inactive)	30.7 µM (inactive)	15.1 µM (inactive)	43.7 µM (inactive)	18.5 µM (inactive)	16.6 µM (inactive)
COc1ccc(-c2c(C#N)c(=O)nc(SC)n2C2OCC(OC(C)=O)C(OC(C)=O)C2OC(C)=O)cc1 (stereo not given)	> 100 µM (inactive)	> 100 µM (inactive)	31.6 µM (inactive)	57.8 µM (inactive)	18.1 µM (inactive)	64.3 µM (inactive)	91.8 µM (inactive)	22.2 µM (inactive)	29 µM (inactive)	> 100 µM (inactive)	90.6 µM (inactive)	56 µM (inactive)	> 100 µM (inactive)	38.6 µM (inactive)	21.3 µM (inactive)	> 100 µM (inactive)	5.11 µM (inactive)	> 100 µM (inactive)	> 100 µM (inactive)	33.5 µM (inactive)
c1ccc(N/N=C2\CC(c3ccccc3)Oc3ccccc32)cc1 (stereo not given)	50.2 µM (inactive)	31.6 µM (inactive)	36.5 µM (inactive)	33.8 µM (inactive)	41.9 µM (inactive)	30.5 µM (inactive)	35.9 µM (inactive)	38.2 µM (inactive)	33 µM (inactive)	42.6 µM (inactive)	39.6 µM (inactive)	32.4 µM (inactive)	74.1 µM (inactive)	22.1 µM (inactive)	28.4 µM (inactive)	36.2 µM (inactive)	42.1 µM (inactive)	46.1 µM (inactive)	> 100 µM (inactive)	40.6 µM (inactive)
C=CCn1c(N)c(C#N)c(C#N)c1CCC	> 100 µM (inactive)	> 100 µM (inactive)	> 100 µM (inactive)	> 100 µM (inactive)	> 100 µM (inactive)	> 100 µM (inactive)	> 100 µM (inactive)	> 100 µM (inactive)	> 100 µM (inactive)	> 100 µM (inactive)	> 100 µM (inactive)	> 100 µM (inactive)	> 100 µM (inactive)	> 100 µM (inactive)	43.2 µM (inactive)	> 100 µM (inactive)	22.5 µM (inactive)	> 100 µM (inactive)	> 100 µM (inactive)	> 100 µM (inactive)
CC1C2CC(CC2(C)O)C1(C)C (stereo not given)	> 100 µM (inactive)	> 100 µM (inactive)	> 100 µM (inactive)	> 100 µM (inactive)	> 100 µM (inactive)	> 100 µM (inactive)	> 100 µM (inactive)	> 100 µM (inactive)	> 100 µM (inactive)	> 100 µM (inactive)	> 100 µM (inactive)	> 100 µM (inactive)	> 100 µM (inactive)	> 100 µM (inactive)	> 100 µM (inactive)	> 100 µM (inactive)	> 100 µM (inactive)	> 100 µM (inactive)	> 100 µM (inactive)	> 100 µM (inactive)
